The text below walks through data of patent US9771358B2, “Dihydropyrimidine compounds and their application in pharmaceuticals” (SUNSHINE LAKE PHARMA CO., LTD., priority 2014, dated 2017).

One data set concerns HBV. Nature of the data set: In-vitro anti-HBV activity in stable HBV-producing cell line (HepG2.2.15), HBV DNA by qPCR. The data set is classed as cell-based. The note with it: Hepatitis B virus, 168 h; HepG2.2.15 cells, HBV DNA in culture fluid, day 7, top concentration 16.4 μM. In a few lines: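 HepG2.2.15 cells are dosed 24 hours after seeding, top concentration 16.4 μM with 3-fold dilutions over 9 points in duplicate, and medium is refreshed on day 4. Supernatant HBV DNA is quantified by qPCR on day 7 against DMSO control, and EC50 comes from a four-parameter logistic fit.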
(In qPCR the cycle at which signal appears reflects the starting amount.)

A short description of data set [1]: PK of test compounds in beagle. It is filed as in vivo, beagle dog. The note with it: for Cmax / Tmax / clearance / half-life / AUC(0-inf) / AUC(0-t) / Vd: dog, plasma; for AUC(0-inf): AUC in 0 hour to infinite time; for Vd: read-out: Vss; for F: absolute bioavailability. As to the method:
The test compounds were administrated to beagle dog by gavage in dose of 2.5 mg/kg or 5 mg/kg, or by intravenous injection in dose of 1 mg/kg or 2 mg/kg. Blood sample was collected at 0.083, 0.25, 0.5, 1, 2, 4, 6, 8 and 24 hours from vein after administration into anticoagulation tubes with EDTA-K2. The test compounds were extracted from plasma samples and chromatographed on a tandem mass spectrometer. Quantitation was performed using multiple reaction monitoring (MRM). Pharmacokinetic parameters were calculated using WinNonlin 6.3 software with non compartment model.

Data set [2] in a line: Stability in liver microsome, human. The data set is classed as in vitro ADME. The note with it: liver microsomes; human liver microsome 0.1 mg/mL, compound 1 μM, NADPH 2 mM. On the procedure: (§1) Then two parallel samples were prepared. After a 10 minutes preincubation at 37° C., 15 μL of NADPH solution (8 mM) was added according to the point-in-time. The final concentration of the text compound was 1 μM, the concentration of liver microsome was 0.1 mg/mL, the final concentration of NADPH was 2 mM. The incubations were last for 0, 15, 30, 60 min respectively, and then 150 μL of acetonitrile (include interior label) was added to the mixture system. After dilution with acetonitrile, the samples were centrifuged for 5 minutes in 4000 rpm. The supernatant liquid was collected for LC-MS/MS analysis.
For orientation: Liver microsomes are a subcellular fraction often used to study metabolism.

Data set [3] can be described thus: Stability in liver microsome, dog. The data set is classed as in vitro ADME. The note with it: liver microsomes; dog liver microsome 0.1 mg/mL, compound 1 μM, NADPH 2 mM. On the procedure:
as §1

Data set [4] in a line: Stability in liver microsome, mouse. The data set is classed as in vitro ADME. Particulars: liver microsomes; mouse liver microsome 0.1 mg/mL, compound 1 μM, NADPH 2 mM. As to the method: as §1
A short description of data set [5]: Stability in liver microsome, monkey. The data set is classed as in vitro ADME. The note with it: liver microsomes; monkey liver microsome 0.1 mg/mL, compound 1 μM, NADPH 2 mM. On the procedure:
as §1

The mark [6] stands for this setting: iv, 1 mg/kg, iv, 1 mg/kg, AUC in 0-24 hours, read-out: AUClast.
Setting [7] is: po, 2.5 mg/kg, po, 2.5 mg/kg value multiplied by 2, read-out: AUClast ×2 (calculated by dosage).
The mark [8] stands for this setting: po, 2.5 mg/kg, po, 2.5 mg/kg, AUC in 0-24 hours, read-out: AUClast.

Where two headings read alike, the source gives them in different places.

For orientation: EC50 means the midpoint of the concentration-response curve. As a reminder, the Cmax is the maximum level reached in the sampled fluid or tissue. Usually Tmax stands for the time at which the peak concentration occurs. As a reminder, the clearance is the rate of elimination divided by the concentration. The half-life is how long it takes for the measured level to halve. A word on the AUC(0-inf): it is the area under the concentration-time curve extrapolated to infinity. The CLint scaled is a measure of how fast metabolising enzymes remove a compound, apart from limits set by blood flow. With `CCOC(=O)C1=C(CN2CCO[C@H](CCC(=O)O)C2)NC(c2nccs2)=N[C@H]1c1ccc(Cl)cc1Cl` [Example 12, 3-((R)-4-(((R)-6-(2,4-dichlorophenyl)-5-(ethoxycarbonyl)-2-(thiazol-2-yl)-3,6-dihydropyrimidin-4-yl)methyl)morpholin-2-yl)propanoic acid], the EC50 with HBV came to 26 nM. Further, in data set [1] (iv, 1 mg/kg), the peak level (Cmax) was 2230 ng/mL, the Tmax stood at 0.083 h, the clearance was 2.12 mL/min/kg and the half-life is 6.2 h. Moreover, in data set [1] (iv, 1 mg/kg), the AUC(0-inf) worked out at 7970 ng·h/mL and the Vd was 0.832 L/kg. The AUC(0-t) in data set [1] (setting [6]) stood at 7570 ng·h/mL. In addition, in data set [1] (po, 2.5 mg/kg), the highest concentration (Cmax) worked out at 2660 ng/mL, the Tmax worked out at 0.5 h, the half-life was 9.07 h and the AUC(0-inf) was 16800 ng·h/mL. The same compound gave a F in data set [1] (po, 2.5 mg/kg) of 84.48%. Moreover, in data set [1] (setting [7]), the AUC(0-t) is 30000 ng·h/mL. Moreover, the AUC(0-t) in data set [1] (setting [8]) came out at 15000 ng·h/mL. In data set [2], this compound came in with a CLint scaled at 1 μM of 18.6 mL/min/kg and a half-life at 1 μM of 1.56 h. In data set [3], this compound had a CLint scaled at 1 μM of 17.5 mL/min/kg and a half-life at 1 μM of 3.28 h. In data set [4], the CLint scaled at 1 μM was 604 mL/min/kg and the half-life at 1 μM came out at 0.15 h. In data set [5], the intrinsic metabolic clearance (CLint scaled) at 1 μM amounted to 122 mL/min/kg and the half-life at 1 μM was found to be 0.277 h.

In the data set with HBV, `COC(=O)C1=C(CN2CCO[C@H](CCC(=O)O)C2)NC(c2nccs2)=N[C@H]1c1ccc(Cl)cc1Cl` [Example 13, 3-((R)-4-(((R)-6-(2,4-dichlorophenyl)-5-(methoxycarbonyl)-2-(thiazol-2-yl)-3,6-dihydropyrimidin-4-yl)methyl)morpholin-2-yl)propanoic acid] registered an EC50 of 28 nM. Also, in data set [1] (iv, 1 mg/kg), the peak concentration (Cmax) came to 2920 ng/mL, the Tmax is 0.083 h, the clearance amounted to 1.49 mL/min/kg and the half-life was 5.08 h. Moreover, in data set [1] (iv, 1 mg/kg), the AUC(0-inf) was 11600 ng·h/mL and the Vd turned out to be 0.526 L/kg. The AUC(0-t) in data set [1] (setting [6]) worked out at 11200 ng·h/mL. For the same compound, in data set [1] (po, 2.5 mg/kg), the concentration peaked (Cmax) at 6410 ng/mL, the Tmax worked out at 0.667 h, the half-life was 5.29 h and the AUC(0-inf) is 33300 ng·h/mL. In data set [1] (po, 2.5 mg/kg), this compound registered an F of 105.6%. The AUC(0-t) in data set [1] (setting [7]) is 64400 ng·h/mL. In addition, the AUC(0-t) in data set [1] (setting [8]) is 32200 ng·h/mL. In addition, in data set [2], the CLint scaled at 1 μM was 17.2 mL/min/kg and the half-life at 1 μM was found to be 1.68 h. In data set [3], the CLint scaled at 1 μM was 5.51 mL/min/kg and the half-life at 1 μM came out at 10.5 h. In data set [4], this compound came in with a CLint scaled at 1 μM of 135 mL/min/kg and a half-life at 1 μM of 0.673 h. Further, in data set [5], the CLint scaled at 1 μM turned out to be 36 mL/min/kg and the half-life at 1 μM amounted to 0.94 h.
